In brackets after ≈: the same amount, converted by molar mass. Activity calls are given as the source filed them. No cut-off for these calls is given here. Where only a bound is given, the exact number is not on record here.

Series [1] has as its system Haemophilus influenzae. Description: Antibacterial activity against Haemophilus influenzae MSD2261 after 18 to 20 hrs by serial dilution method. The class given is functional.
Series [2] concerns Escherichia coli. Description: Antibacterial activity against Escherichia coli MB2884 after 18 to 20 hrs by serial dilution method. The class given is functional.
Series [3] deals with Candida albicans. Description: Antimicrobial activity against Candida albicans MY1055 after 18 to 20 hrs by serial dilution method. The class given is functional.
Series [4] has as its system Streptococcus pneumoniae. Description: Antibacterial activity against penicillin-susceptible Streptococcus pneumoniae CL2883 after 18 to 20 hrs by serial dilution method. The class given is functional.
Series [5] relates to Staphylococcus aureus. As to the kind of experiment: Inhibition of protein synthesis in Staphylococcus aureus EP167 after 30 mins by scintillation counter. The class given is functional, organism-based. As to conditions: 0.5 h.
Series [6] relates to Staphylococcus aureus. As to the kind of experiment: Inhibition of DNA synthesis in Staphylococcus aureus EP167 after 30 mins by scintillation counter. Type of series: functional, organism-based.
For series [7], the system named is Staphylococcus aureus. As to the kind of experiment: Antibacterial activity against methicillin-susceptible Staphylococcus aureus MB2865 after 18 to 20 hrs by serial dilution method. Type of series: functional.
Series [8] relates to Staphylococcus aureus. As to the kind of experiment: Antibacterial activity against Staphylococcus aureus EP167 after 18 to 20 hrs by serial dilution method. Type of series: functional.
The test system of series [9] is Staphylococcus aureus. As to the kind of experiment: Inhibition of phospholipid synthesis in Staphylococcus aureus EP167 after 30 mins by scintillation counter. Type of series: functional, organism-based.
In series [10] the test system is Enterococcus faecalis. Description: Antibacterial activity against vancomycin-susceptible Enterococcus faecalis CL8516 after 18 to 20 hrs by serial dilution method. Type of series: functional.
For series [11], the system named is Staphylococcus aureus. As to the kind of experiment: Inhibition of RNA synthesis in Staphylococcus aureus EP167 after 30 mins by scintillation counter. The class given is functional, organism-based.
Series [12] has as its system Staphylococcus aureus. Description: Inhibition of peptidoglycan synthesis in Staphylococcus aureus EP167 after 30 mins by scintillation counter. Type of series: functional, organism-based.
Series [13] relates to Staphylococcus aureus. As to the kind of experiment: Antibacterial activity against methicillin-resistant Staphylococcus aureus MB5393 containing COL plasmid after 18 to 20 hrs by serial dilution method. The class given is functional.
Series [14] is described as follows: Aqueous solubility of the compound. As to conditions: water. The class given is physicochemical.

On to `CC(=O)NC[C@H]1CN(c2ccc(N3CCOCC3)c(F)c2)C(=O)O1` [LINEZOLID], for which the MIC in series [1], in series [2] and in series [3] was > 32 µg/mL throughout.

Usually IC50 stands for the midpoint of a concentration-inhibition curve. Lower therefore signals greater potency in that assay. Broadly, the solubility is the dissolved amount per volume that the medium holds. Low values mean little dissolved substance, high ones much dissolved substance. Take `C=C(NC(=O)c1csc(-c2nc3c(cc2O)-c2nc(cs2)C(=O)N[C@@H]([C@@H](C)O)C(=O)N/C(=C(\C)OC)c2nc(cs2)C(=O)N[C@@H]2c4nc(cs4)C(=O)N[C@@H](COC(=O)c4c5c6c(cccc6n4O)COC(=O)[C@@H](O[C@H]4C[C@]6(C)OC(C)N(C)[C@@H]6[C@H](C)O4)[C@H]2OC5)c2nc-3cs2)n1)C(N)=O` (some centres undefined) [THIAZOMYCIN A]: the MIC in series [4] is 0.002 µg/mL (≈ 0.00138 µM); in series [1], > 32 µg/mL; in [7] it was 0.06 µg/mL (≈ 0.0414 µM); in [2], > 32 µg/mL; in series [8] it was 0.004 µg/mL (≈ 0.00276 µM); in [10], 0.25 µg/mL (≈ 0.172 µM). Besides, the MIC was > 32 µg/mL in series [3] and 0.06 µg/mL (≈ 0.0414 µM) in [13]. This compound returned a half-maximal inhibitory concentration (IC50) in series [5] of 0.7 µg/mL (≈ 0.483 µM). In addition, the outcome in series [6], in series [9], in series [11] and in series [12] was inactive. Besides, the solubility in series [14] is < 100 µg/mL.

On to `C=C(NC(=O)c1csc(-c2nc3c(cc2O)-c2nc(cs2)C(=O)N[C@@H]([C@@H](C)O)C(=O)N/C(=C(\C)OC)c2nc(cs2)C(=O)N[C@@H]2c4nc(cs4)C(=O)N[C@@H](COC(=O)c4c5c6c(cccc6n4O)COC(=O)[C@@H](O[C@H]4C[C@]6(C)OCN(C)[C@@H]6[C@H](C)O4)[C@H]2OC5)c2nc-3cs2)n1)C(N)=O` [THIAZOMYCIN], for which the MIC in series [4] is 0.004 µg/mL (≈ 0.00279 µM); in series [1] it was > 32 µg/mL; in series [7], 0.016 µg/mL (≈ 0.0111 µM); in series [2], > 32 µg/mL; in series [10], 0.064 µg/mL (≈ 0.0446 µM); in series [3] it was > 32 µg/mL. Besides, the MIC in [13] was found to be 0.032 µg/mL (≈ 0.0223 µM).
